Data as given in US9975910B2, “Hetero-fused cyclic compound” (Eisai R&D Management Co., Ltd., priority 2013, dated 2018).
Values after ≈ are worked out from the molar mass of the structure shown.

How the values were obtained:
[1] = tested on: C. albicans CAF2-1 strains; experiment: Anticandidal activity (MIC measurement); format: cell-based; conditions: for MIC: Candida albicans, CAF21STRAINS; for Anticandidal activity compared with amphotericin B: result in words
Protocol: The anticandidal activity of Reference Examples 1, 2, and 3 and Comparative Examples 1, 2, and 3 produced using Examples and amphotericin B was measured as follows.
C. albicans CAF2-1 strains were subjected to static culture in a Sabouraud dextrose liquid culture medium (SDB) at 30° C. for 48 hours; and the bacterial suspension was diluted with an RPMI1640 culture medium to prepare a 1.2×10^3 cells/mL bacterial suspension.
The diluted solutions of eight test compounds in plates (A to H) were prepared using a U-bottomed 96-well plate. 10 μL of a dimethyl sulfoxide solution was poured into columns 2 to 12 of the individual plates. The weighed test compounds were separately dissolved in dimethyl sulfoxide to prepare 2.5 mg/mL solutions; then, these solutions (20 μL) were placed in column 1 of the prepared plates, and were subjected to two-fold serial dilution in 12 steps on the plates (10 μL of solution+10 μL of dimethyl sulfoxide solution). The diluted solutions of the test compounds each were placed in a flat-bottomed 96-well plate for MIC measurement in an amount of 1 μL to prepare plates of the diluted test compound.
The bacterial suspension prepared in (1) (99 μL/well) was inoculated into the flat-bottomed 96-well plate containing the diluted solutions of the test compounds (1 μL/well) prepared in (2), and was subjected to static culture at 35° C. for 42 to 48 hours under an aerobic condition.

[2] = Evaluation on solubility (HPLC-UV, phosphate-buffered saline); format: physicochemical; conditions: for solubility: aqueous buffer, kinetic from dmso stock, Dulbecco's phosphate-buffered saline pH 7 (GIBCO), room temperature, about 15 minutes shaking; for Solubility compared with Comparative Example 1 and Comparative Example 2: phosphate-buffered saline pH 7, result in words
Protocol: The supernatant was then separated through vacuum filtration operation. A dimethyl sulfoxide solution (sample concentration: 100 μM) was used as a standard solution, and the sample concentration in the supernatant determined by an HPLC-UV method was defined as solubility. Test solution: pH of 7, GIBCO™ (Dulbecco's phosphate-buffered saline, Invitrogen Corporation)

[3] = Metabolic stability of pooled human liver microsomes; format: in vitro ADME; conditions: for Residual rate of unchanged substance (%): 0.3 μM compound, 0.2 mg/mL microsomes, 37° C., NADPH; for microsomal CLint at 0.3 μM: ke/(concentration of pooled human liver microsomes), read-out: Hepatic intrinsic clearance; for Clearance of human liver microsomes compared with the respective Comparative Example: result in words
Protocol: Evaluations on the metabolic stability of human liver microsomes prepared in Reference Examples 1 and 2 and Comparative Examples 1 and 2 produced using Examples were performed as follows.
A test compound was added to an enzyme solution (pooled human liver microsomes (0.2 mg/mL), 100 mM Kpi, containing 0.1 mM EDTA), and was incubated in the presence of a coenzyme for a predetermined time at 37° C. The final concentration of the test compound was 0.3 μM. As the coenzyme, an NADPH-generating system (solution in which 60 mM MgCl2 solution containing 3.6 mM β-NADP^+, 90 mM glucose-6-phosphate, and 1 Unit/mL glucose-6-phosphate dehydrogenated enzyme was incubated at 37° C. for 5 minutes to generate NADPH) was used. After pre-incubation, part of the reaction solution was extracted; a double amount of a mixed solution of acetonitrile and methanol (7:3, containing 1.0 μM Propranolol as an internal standard substance) was added to terminate the reaction, and the concentration of the unchanged substance in the reaction solution was measured by LC-MS/MS. Based on the peak area of the unchanged substance obtained, the residual rate (%) of the unchanged substance was calculated wherein the residual rate at 0 min (incubation time) was 100%. Namely, the inclination of the straight line obtained when the value obtained by natural logarithmic conversion of the residual rate of the unchanged substance after a predetermined reaction time was plotted as the ordinate, and the reaction time was plotted as the abscissa was defined as an elimination rate constant (ke). Based on the obtained elimination rate constant ke, the hepatic intrinsic clearance of the test compound was calculated with the following expression: Hepatic intrinsic clearance (mL/min/mg protein)=ke/(concentration of pooled human liver microsomes: mg protein/mL)

[4] = Evaluation on lipid solubility: distribution ratio (D) of 1-octanol to water by ODS column HPLC; format: physicochemical; conditions: 1-octanol/water, pH 6.8, from HPLC retention on ODS column
Protocol: A parameter of lipid solubility, i.e., a distribution ratio (D) of a 1-octanol to water (pH: 6.8) was determined with an ODS (silica gel having a surface modified with an octadecylsilyl group) column by the following method.
The mobile phase shown in Table 2 was added to sodium nitrate (to marker) and six standard substances having known partition coefficients shown in Table 2 to prepare mixed solutions each containing 5 μg/mL sodium nitrate and a 10 μg/mL or 10 μL/mL standard substance; these mixed solutions were used as standard solutions. The mobile phase shown in Table 3 was added to a sample, the concentration was adjusted to 0.1 mM to prepare a sample solution. HPLC analysis of the standard solutions and the sample solution was performed on the following conditions, and the retention times (tr) of the standard substances and the sample were measured. From the retention factor (kstd) determined from the partition coefficient (log P) of the standard substance and Expression I, the regression coefficient (a) and the constant term (b) in Expression II were determined; using Expression III, the partition coefficient (log D) at a pH of 6.8 was calculated from the retention factor (ksmpt) of the sample; finally, the distribution ratio (D) of 1-octanol to water (pH: 6.8) was obtained.
Reference: Exploring QSAR-Hydrophobic, and Steric Constants, Corwin Hansch, Albert Leo, and David Hoekman, ACS Professional Reference Book k=(tr−t0)/t0 Expression I log P=a×log kstd+b Expression II log D=a×log ksmp+b Expression III (2) Measurement Conditions

[5] = standard substances, known values (Hansch, Leo, Hoekman); cited from earlier work
[6] = RPMI1640, 35° C., 42 to 48 hours, visually determined

C[C@@H]1[C@H](O)[C@@H](C)/C=C/C=C/C=C/C=C/C=C/C=C/C=C/[C@H](O[C@@H]2O[C@H](C)[C@@H](O)[C@H](N)[C@@H]2O)C[C@@H]2O[C@](O)(C[C@@H](O)C[C@@H](O)[C@H](O)CC[C@@H](O)C[C@@H](O)CC(=O)O[C@H]1C)C[C@H](O)[C@H]2C(=O)O [Amphotericin B]
Anticandidal activity (MIC) [1, 6]: 1.6 µg/mL

Cc1cc(Cc2ccc(CNC(=O)c3ccc(N)nc3N)cc2)sc1C [Comparative Example 1, 2,6-Diamino-N-({4-[(4,5-dimethylthiophen-2-yl)methyl]phenyl}methyl)-pyridine-3-carboxamide, reference compound]
solubility [2]: 0.2 µM (≈ 0.0733 µg/mL)
Residual rate of unchanged substance (%) ([3]; After 0 min (defined as 100%)): 100.0%
Residual rate of unchanged substance (%) ([3]; After 15 min): 93.1%
Residual rate of unchanged substance (%) ([3]; After 30 min): 77.0%
Residual rate of unchanged substance (%) ([3]; After 60 min): 56.2%
microsomal CLint at 0.3 μM [3]: 50 µL/min/mg
MIC [1, 6]: 0.13 µg/mL (≈ 0.355 µM)
Anticandidal activity compared with amphotericin B [1]: strong anticandidal activity equal to that of amphotericin B
chromatographic logD [4]: 3.27

Cc1nc(N)c(C(=O)NCc2ccc(COc3ccccn3)cc2)nc1C [Comparative Example 2, 3-Amino-5,6-dimethyl-N-({4-[(pyridin-2-yloxy)methyl]phenyl}methyl)pyrazine-2-carboxamide, reference compound]
solubility [2]: 0.9 µM (≈ 0.327 µg/mL)
Residual rate of unchanged substance (%) ([3]; After 0 min (defined as 100%)): 100.0%
Residual rate of unchanged substance (%) ([3]; After 15 min): 73.0%
Residual rate of unchanged substance (%) ([3]; After 30 min): 53.7%
Residual rate of unchanged substance (%) ([3]; After 60 min): 30.9%
microsomal CLint at 0.3 μM [3]: 98 µL/min/mg
MIC [1, 6]: 0.063 µg/mL (≈ 0.173 µM)
Anticandidal activity compared with amphotericin B [1]: strong anticandidal activity equal to that of amphotericin B
chromatographic logD [4]: 3.26

Cc1cc(C(=O)NCc2ccc(OCc3ccccc3)cc2)c(N)nc1C [Comparative Example 3, 2-Amino-N-(4-(benzyloxy)benzyl)-5,6-dimethylnicotinamide, reference compound]
Residual rate of unchanged substance (%) ([3]; After 0 min (defined as 100%)): 100.0%
Residual rate of unchanged substance (%) ([3]; After 15 min): 65.0%
microsomal CLint at 0.3 μM [3]: 150 µL/min/mg
MIC [1, 6]: 0.13 µg/mL (≈ 0.36 µM)
Anticandidal activity compared with amphotericin B [1]: strong anticandidal activity equal to that of amphotericin B
chromatographic logD [4]: 3.41

Nc1ccc(C(=O)NCc2ccc(Cc3cc4c(s3)COC4)cc2)c(N)n1 [Reference Example 1]
solubility [2]: 13.9 µM (≈ 5.29 µg/mL)
Solubility compared with Comparative Example 1 and Comparative Example 2 [2]: higher
Residual rate of unchanged substance (%) ([3]; After 0 min (defined as 100%)): 100.0%
Residual rate of unchanged substance (%) ([3]; After 15 min): 83.6%
Residual rate of unchanged substance (%) ([3]; After 30 min): 75.9%
Residual rate of unchanged substance (%) ([3]; After 60 min): 61.4%
microsomal CLint at 0.3 μM [3]: 39 µL/min/mg
Clearance of human liver microsomes compared with the respective Comparative Example [3]: improved
MIC [1, 6]: 0.25 µg/mL (≈ 0.657 µM)
Anticandidal activity compared with amphotericin B [1]: strong anticandidal activity equal to that of amphotericin B
chromatographic logD [4]: 2.15

Nc1nc2c(nc1C(=O)NCc1ccc(COc3ccccn3)cc1)COC2 [Reference Example 2, 5-Amino-N-({4-[(pyridin-2-yloxy)methyl]phenyl}methyl)-1,3-dihydrofuro[3,4-b]pyrazine-6-carboxamide]
solubility [2]: 2.1 µM (≈ 0.793 µg/mL)
Solubility compared with Comparative Example 1 and Comparative Example 2 [2]: higher
Residual rate of unchanged substance (%) ([3]; After 0 min (defined as 100%)): 100.0%
Residual rate of unchanged substance (%) ([3]; After 15 min): 87.0%
Residual rate of unchanged substance (%) ([3]; After 30 min): 77.6%
Residual rate of unchanged substance (%) ([3]; After 60 min): 65.4%
microsomal CLint at 0.3 μM [3]: 35 µL/min/mg
Clearance of human liver microsomes compared with the respective Comparative Example [3]: improved
MIC [1, 6]: 0.5 µg/mL (≈ 1.32 µM)
Anticandidal activity compared with amphotericin B [1]: strong anticandidal activity equal to that of amphotericin B
chromatographic logD [4]: 2.72

Nc1nc2c(cc1C(=O)NCc1ccc(OCc3ccccc3)cc1)COC2 [Reference Example 3]
Residual rate of unchanged substance (%) ([3]; After 0 min (defined as 100%)): 100.0%
Residual rate of unchanged substance (%) ([3]; After 15 min): 78.0%
microsomal CLint at 0.3 μM [3]: 82 µL/min/mg
Clearance of human liver microsomes compared with the respective Comparative Example [3]: improved
MIC [1, 6]: 2 µg/mL (≈ 5.33 µM)
Anticandidal activity compared with amphotericin B [1]: strong anticandidal activity equal to that of amphotericin B
chromatographic logD [4]: 2.72

CCCCc1ccccc1 [n-Butylbenzene]
Partition coefficient (logP) [5]: 4.38
